Source: patent publication US3937838A, “Orally active bronchospasmolytic compounds and their preparation” (priority 1966, dated 1976)
Like-named read-outs stand apart in the source and are kept apart here.

Key:
[1] = test system: isolated rabbit heart; experiment: Effect on isolated heart, Langendorff preparation (Example 5d)
Method: The effect of the compound of the present invention was also studied on isolated rabbit heart (Langendorff preparation) the method used as described by Anden et al. (Acta Pharmacol. et Toxicol., 21 (1964) page 247). In this procedure, the isolated heart is mounted in a Krebs solution and the test compound is injected into it. Measurements are continuously recorded of the rate and force of contraction.
The tests using epinephrine establish a standard of comparison to evaluate subsequent test compounds in the same preparation.

[2] = test system: bronchoconstriction by histamine aerosol; experiment: Protecting effect against histamine aerosol in guinea pigs (Example 15); assay type: in vivo, guinea pig; conditions: Cavia porcellus, read-out: ED50 (protecting 50 percent of the animals for more than 4 minutes)
Text: Male guinea pigs (200--300 g) were used. Bronchoconstriction was produced by letting the animals inhale a histamine aerosol.

[3] = test system: bronchial muscle and heart
Text: (§1) [This procedure is more fully described below in Example 5 (b)].

[4] = test system: cardioaccelerating effect; conditions: in vivo
Text: as §1

[5] = test system: histamine induced bronchoconstriction; experiment: Bronchospasmolytic effect in vivo, Konzett and Rossler (Example 5b); design: species or system guinea pig; conditions: intravenous; histamine-induced bronchospasm; FIG. 1
Method: Orciprenaline and terbutaline were also tested in vivo according to the method described by Konzett and Rossler [Arch. Exp. Path. Pharmak. 195 (1940) page 71]. In the method of Konzett and Rossler, the animal is ventilated with a constant volume of air. When a certain pressure has been reached in the lung, the volume of air which is in excess of the pulmonary capacity will escape through the valve. This surplus of air is recorded. The testing compounds in the Konzett and Rossler method, bronchial contraction is provoked by administration of histamine. The histamine reduced the capacity of the airways, and the measured overflow increases. In order to see to what extent a test compound counteracts the histamine-induced bronchospasm, the animal is first given an injection of the test compound which is followed 3 minutes later by exposure to histamine.

[6] = test system: asthmatic patients; experiment: Clinical trials, arterial oxygen tension in asthmatic patients; assay type: in vivo, human; conditions: a number of clinical trials
Text: Because stimulation of the cardiovascular system is thought to be a cause of the adverse effects of many of the prior art compounds on blood oxygen pressures, it is expected that the compounds of the present invention will be less likely to lead to a fall in blood oxygen pressure then compounds such as epinephrine or isoprenaline. The compounds of the present invention have the added advantage of improved longevity of action over all of the compounds described above. […] This improvement has been observed in a number of clinical trials.

CC(C)(C)NCC(O)c1cc(O)cc(O)c1 (racemic) [terbutaline, 1-(3',5'-dihydroxyphenyl)-2-(t-butylamino)-ethanol]
effect on isolated heart relative to epinephrine ([1]; cardiac/cardioaccelerating effect, FIGS. 5, 6): about one-fiftieth | effect on rate and force of isolated heart ([1]; injection, FIG. 5): weak | ED50 ([2]; 0.5 h, oral, 30 minutes before histamine): 0.4 mg/kg | ED50 ([2]; ip, 0.25 h, i.p., 15 minutes before histamine): 0.15 mg/kg | duration of effect versus orciprenaline [3]: longer than that of orciprenaline | bronchodilator potency versus orciprenaline ([3]; in vitro and in vivo): more potent bronchodilator | cardioaccelerating effect [4]: weak cardioaccelerating effect | bronchospasmolytic effect relative to orciprenaline [5]: twice | arterial oxygen tension [6]: improved arteriel oxygen tension in asthmatic patients
